Test results: US20210002232A1, “HETEROCYCLIC COMPOUNDS AS FUNGICIDES” (PI INDUSTRIES LTD., priority 2018, published 2021)

Experiments:
Phakopsora pachyrhizi = Phakopsora pachyrhizi test in soybean, preventive spray in greenhouse; type: in vivo; details: preventive spray on soybean plants, inoculated one day after treatment, compared to the untreated check, read-out: control (efficacy from disease severity rating)
Pyricularia oryzae = assay: microbe, parasite or virus in culture; type: cell-based; details: 168 h, read-out: control
Alternaria solani = Alternaria solani (early blight of tomato/potato) mycelial radial growth on Potato Dextrose Agar; details: 168 h, read-out: control
Method: Compounds were dissolved in 0.3% DMSO & then added to Potato Dextrose Agar medium just prior to dispensing it into Petri dishes. 5 ml medium with compound in the desired concentration was dispensed into 60 mm sterile petri-plates. After solidification each plate was seeded with 5 mm size mycelial disc taken form periphery of actively growing virulent culture plate. Plates were incubated in growth chambers at 25° C. temperature and 60% relative humidity for seven days and radial growth was measured.

Corynespora cassiicola = Corynespora cassiicola (leaf spot of tomato) mycelial radial growth on Potato Dextrose Agar; type: cell-based; details: 300 ppm; radial growth after seven days, 25° C., 70% relative humidity; compared to the untreated check

SMILES	pest or weed control at 500 ppm (Phakopsora pachyrhizi) [%]	inhibition of growth at 300 ppm (Pyricularia oryzae) [%]	inhibition of growth at 300 ppm (Alternaria solani) [%]	control (Corynespora cassiicola)
CS(=O)(=NC(=O)c1ccc(C2=NOC(C(F)(F)F)N2)cc1)c1ccc(Cl)cc1 (stereo not shown) [Compound 1, N-((4-chlorophenyl)(methyl)(oxo)-λ^6-sulfaneylidene)-4-(5-(trifluoromethyl)-4,5-dihydro-1,2,4-oxadiazol-3-yl)benzamide]	> 90	> 70	–	–
COc1ccc(S(C)(=O)=Nc2ccc(C3=NOC(C(F)(F)F)N3)cc2)cc1 (stereo not shown) [Compound 16, (4-methoxyphenyl)(methyl)((4-(5-(trifluoromethyl)-4,5-dihydro-1,2,4-oxadiazol-3-yl)phenyl)imino)-λ^6-sulfanone]	–	> 70	> 70	–
CN(CCOc1ccccc1)C(=O)c1ccc(-c2noc(C(F)F)n2)cc1 [Compound 17, 4-(5-(difluoromethyl)-1,2,4-oxadiazol-3-yl)-N-methyl-N-(2-phenoxyethyl)benzamide]	–	> 70	–	–
CS(=O)(=Nc1ccc(C2=NOC(C(F)(F)F)N2)cc1)c1ccccn1 (stereo not shown) [Compound 24, Methyl(pyridin-2-yl)((4-(5-(trifluoromethyl)-4,5-dihydro-1,2,4-oxadiazol-3-yl)phenyl)imino)-λ^6-sulfanone]	> 90	> 70	> 70	–
COc1ccc(S(C)(=O)=NC(=O)c2ccc(C3=NOC(C(F)(F)F)N3)cc2)cc1 (stereo not shown) [Compound 25, N-((4-methoxyphenyl)(methyl)(oxo)-λ^6-sulfaneylidene)-4-(5-(trifluoromethyl)-4,5-dihydro-1,2,4-oxadiazol-3-yl)benzamide]	> 90	–	> 70	–
CS(=O)(=NCc1ccc(C2=NOC(C(F)F)N2)cc1)c1ccccc1 (stereo not shown) [Compound 27, ((4-(5-(difluoromethyl)-4,5-dihydro-1,2,4-oxadiazol-3-yl)benzyl)imino)(methyl)(phenyl)-λ^6-sulfanone]	–	> 70	–	–
Cc1ccc(S(C)(=O)=NCc2ccc(C3=NOC(C(F)(F)F)N3)cc2)cc1 (stereo not shown) [Compound 30, methyl(p-tolyl)((4-(5-(trifluoromethyl)-4,5-dihydro-1,2,4-oxadiazol-3-yl)benzyl)imino)-λ^6-sulfanone]	> 90	> 70	> 70	–
CS(=O)(=NCc1ccc(-c2nc(C(F)F)n[nH]2)cc1)c1ccccc1 (stereo not shown) [Compound 42, ((4-(3-(difluoromethyl)-1h-1,2,4-triazol-5-yl)benzyl)imino)(methyl)(phenyl)-λ^6-sulfanone]	–	> 70	–	–
O=C(O)c1ccc(-c2cc(C(F)(F)F)on2)cc1 [Compound 56, 4-(5-(trifluoromethyl)isoxazol-3-yl)benzoic acid]	> 90	–	> 70	–
CS(=O)(=NC(=O)c1ccc(-c2cc(C(F)(F)F)on2)cc1)c1ccc(C(F)(F)F)cc1 (stereo not shown) [Compound 59, N-(methyl(oxo)(4-(trifluoromethyl)phenyl)-λ^6-sulfaneylidene)-4-(5-(trifluoromethyl)isoxazol-3-yl)benzamide]	–	–	–	more than 70%
CN(CCOc1ccccc1)C(=O)c1ccc(-c2coc(C(F)(F)F)n2)cc1 [Compound 67, N-methyl-N-(2-phenoxyethyl)-4-(2-(trifluoromethyl)oxazol-4-yl)benzamide]	> 90	> 70	> 70	–
COc1ccc(S(C)(=O)=NC(=O)c2ccc(-c3coc(C(F)(F)F)n3)cc2)cc1 (stereo not shown) [Compound 78, N-((4-methoxyphenyl)(methyl)(oxo)-λ^6-sulfaneylidene)-4-(2-(trifluoromethyl)oxazol-4-yl)benzamide]	–	–	> 70	–
O=C(Nc1ccccc1)c1ccc(-c2coc(C(F)(F)F)n2)cc1 [Compound 81, N-phenyl-4-(2-(trifluoromethyl)oxazol-4-yl)benzamide]	–	–	> 70	–
CN(C(=O)c1ccc(-c2coc(C(F)(F)F)n2)cc1)c1ccccc1 [Compound 82, N-methyl-N-phenyl-4-(2-(trifluoromethyl)oxazol-4-yl)benzamide]	> 90	> 70	> 70	–
CS(=O)(=NC(=O)c1ccc(-c2coc(C(F)(F)F)n2)cc1)c1ccccc1F (stereo not shown) [Compound 84, N-((2-fluorophenyl)(methyl)(oxo)-λ^6-sulfaneylidene)-4-(2-(trifluoromethyl)oxazol-4-yl)benzamide]	–	> 70	> 70	–
